Measurements reported in patent publication US20080139551A1, “TUMOR NECROSIS FACTOR ALPHA INHIBITORS AND THEIR USE IN THE TREATMENT OF HUMAN DISEASES” (AVANIR PHARMACEUTICALS, priority 2006, published 2008).

What was measured:
TNF-alpha = TNF-alpha production in LPS-challenged mice, assayed by ELISA; assay type: in vivo; settings: Mus musculus, inhibition of TNF-alpha production, formulated in FS-1, oral gavage; for inhibition at 10 mg/kg: 10 mpk P.O.
Text: Mice were challenged with LPS to produce TNF-alpha in vivo, and then assayed by ELISA after dosing with or without the TNF-alpha inhibitor (formulated in FS-1 and delivered through oral gavage).

[1] = In vitro incubation with liver microsomes of mouse, metabolite characterisation by HPLC/MS; assay type: in vitro ADME
Experimental: (§1) Stock solutions of NVP-VAQ996-NX-1 (2 mmol/L) were prepared in DMSO. Alamethicin solution was prepared (0.125 mmol/L) in water. Uridine 5′-diphosphoglucuronic acid (UDPGA) solution (24 mmol/L) was prepared in phosphate buffer 100 mM pH 7.4. In a further experiment 50 mmol/L gluthationic acid reduced (GSH) in phosphate buffer 100 mM pH 7.4 was added as second co-factor.
(§2) For the characterization of in vitro metabolites NVP-VAQ996-NX-1 was incubated at 37° C. for up to 60 minutes with liver microsomes from mouse and human (Table 3).
(§3) 3 μL liver microsomes, containing 20 mg protein/mL, were mixed with 417 μL phosphate buffer, 60 μL alamethicin solution and 60 μL UDPGA. To this reaction mixture 3 μL stock solution (2 mM in DMSO) of NVP-VAQ996-NX-1 was added and pre-incubated for 3 min at 37° C. After pre-incubation, the final reaction was started by addition of 60 μL of the nicotinamide-adenine-dinucleotide-phosphate (NADPH)-regenerating system, containing isocitrate-dehydrogenase (TU/mL), NADP (1 mmol/L), isocitrate (5 mmol/L). After 1 h, the reaction was stopped with 600 μL ice-cold acetonitrile. Experiments were conducted according to a generic protocol. The reaction mixture was stored at −80° C. The final set-up of the in vitro incubation is shown on Table 4.
(§4) Prior to use, the mixture was centrifuged (10000 g, 5 min) and 500 μL of 1 mL supernatant evaporated to dryness. […]

[2] = In vitro incubation with liver microsomes of human, metabolite characterisation by HPLC/MS; assay type: in vitro ADME
Experimental: as §1, §2, §3, §4

[3] = In vitro incubation in plasma from mice; assay type: in vitro ADME, Balb/c mice; settings: heparinized mouse plasma, 5 μg/ml, 2 or 24 hrs at 37° C.
Experimental: Heparinized mouse plasma was freshly obtained from Balb/c mice. Samples were incubated with 5 μg/ml NVP-VAQ996 added from a stock solution (1 mg/ml) in DMSO for 2 or 24 hrs at 37° C.
(§5) For protein precipitation, to 100 μL plasma 100 μL ice-cold acetonitrile was added. This procedure was repeated twice during 1 hour and, after centrifugation (10000 g, 5 min), the supernatant was used for further preparation.
(§6) The solvent of the supernatant was evaporated using the Cyclone high speed evaporator (Prolab, Reinach, Switzerland) and the residue reconstituted with water/acetonitrile (95/5; v/v). An aliquot of the final solution was used for the high performance liquid chromatography/mass spectrometry (HPLC/MS) analyses.
The liquid chromatographic separation was performed using an Chorus-220 syringe pump (CS analytics, Beckenried, Switzerland) and a home-made glass capillary column, 150 mm×0.3 mm, filled with Nucleosil C18-HD, particle size 3.5 μm Gradient mobile phase programming was used with a flow rate of 4.5 μL/min. Eluent A was acetonitrile/water (5/95) 10 mM HCOONH4+0.02% trifluoroacetic acid (TFA). Eluent B was acetonitrile/methanol/water (9/5/5)+10 mM HCOONH4+0.02% TFA. The mobile phase was held 2 min. isocratic at 5% B, followed by a linear gradient from 15% B to 95% B over 30 min and a 5 min isocratic phase at 95% B. The column temperature was kept at 40° C. […]

[4] = Metabolite identification in plasma after p.o. administration to mice; set-up: species or system Balb/c mice; settings: in vivo in plasma after p.o. administration of 10 mg/kg to mice
Experimental: Female Balb/c mice (Charles River) were housed under standard conditions with free access to food and drinking water throughout the experiment. The mice (n=4) were treated perorally with 10 mg/kg NVP-VAQ996-NX-1 (at 5 mL/kg) by gavage. At the allotted time points mice blood samples were obtained into heparinized tubes (30 IU/mL). The liver was removed intact, weighed and snap frozen before storage at −70° C. until analyzed.
as §5, §6
The liquid chromatographic separation was performed using an Chorus-220 syringe pump (CS analytics, Beckenried, Switzerland) and a home-made glass capillary column, 150 mm×0.3 mm, filled with Nucleosil C18-HD, particle size 3.5 μm Gradient mobile phase programming was used with a flow rate of 4.5 μL/min. Eluent A was acetonitrile/water (5/95) 10 mM HCOONH4+0.02% trifluoroacetic acid (TFA). […]

SMILES	inhibition at 10 mg/kg (TNF-alpha)	further results
Cn1c(=O)c([N+](=O)[O-])c(N2CCNCC2)c2ccccc21 [Compound 108]	26.2%	–
CC(=O)N1CCN(c2c(C#N)c(=O)n(CC(=O)c3ccccc3)c3ccc(C)cc23)CC1 [Compound 115]	41.3%	–
CN1CCN(c2c(C#N)c(=O)n(CC(=O)c3ccccc3)c3ccccc23)CC1 [Compound 116]	29.4%	–
Cc1ccc2c(c1)c(N1CCNCC1)c(C#N)c(=O)n2C [Compound 105]	21%	–
Cc1ccc2c(c1)c(N1CCN(C)CC1)c(C#N)c(=O)n2CC(=O)c1ccccc1 [Compound 114]	51.6%	–
N#Cc1c(N2CCN(C(=O)c3cccs3)CC2)c2ccccc2n(CC(=O)c2ccccc2)c1=O [NVP-VAQ996-NX]	–	main metabolite ([1]; after in vitro incubation with liver microsomes of mouse): NVP-VAR235-NX; metabolic degradation with liver microsomes ([1]; mouse liver microsomes 0.1 mg/ml, 5 μM, 37° C., up to 60 min): high; main metabolite ([2]; after in vitro incubation with liver microsomes of human): NVP-VAR235-NX; metabolic degradation with liver microsomes ([2]; human liver microsomes 0.1 mg/ml, 5 μM, 37° C., up to 60 min): high; rate of degradation to metabolite ml in plasma [3]: high; main metabolite [4]: NVP-VAR235-NX
Cc1ccc2c(c1)c(N1CCNCC1)c(C#N)c(=O)n2CC(=O)c1ccccc1 [Compound 103]	67.3%	–
N#Cc1c(N2CCNCC2)c2ccccc2n(CC(=O)c2ccccc2)c1=O [Compound 102]	36.5%	–
CCOC(=O)c1c(N2CCNCC2)c2ccccc2n(Cc2ccc(F)cc2)c1=O [Compound 101]	43.4%	–
CCOC(=O)c1c(N2CCNCC2)c2sccc2n(Cc2cccc(F)c2)c1=O [Compound 113]	–	inhibition at 3 mg/kg (TNF-alpha; 3 mg/kg P.O., read-out: % Inhibition (tested at 3 mg/kg)): 84.1%
